Reference: ChEMBL document CHEMBL1201861, “Genomics of Drug Sensitity in Cancer screening data, Wellcome Trust Sanger Institute”

Columns and labels:
Experiment in all cases: cells
Conditions in all cases: Homo sapiens
[1] = system: COLO-792; format: functional, cell-based
Description: SANGER: Inhibition of human COLO-792 cell growth in a cell viability assay.

[2] = system: Ca9-22; format: functional, cell-based;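 further: growth inhibition of Ca9-22 cells, read out with a cell viability assay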
Description: SANGER: Inhibition of human Ca9-22 cell growth in a cell viability assay.

[3] = system: DOK; format: functional, cell-based;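 further: cell viability assay read-out, values reflect inhibition of cell growth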
Description: SANGER: Inhibition of human DOK cell growth in a cell viability assay.

[4] = system: DoTc2-4510; format: functional, cell-based
[5] = system: G-401; format: functional, cell-based
Description: SANGER: Inhibition of human G-401 cell growth in a cell viability assay.

[6] = system: HCC1395; format: functional, cell-based;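 further: growth inhibition of HCC1395 cells, read out by a cell viability assay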
Description: SANGER: Inhibition of human HCC1395 cell growth in a cell viability assay.

[7] = system: HCC1937; format: functional, cell-based;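 further: growth inhibition measured with a cell viability read-out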
Description: SANGER: Inhibition of human HCC1937 cell growth in a cell viability assay.

[8] = system: HSC-2; format: functional, cell-based;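 further: growth inhibition of human HSC-2 cells, read out by a cell viability assay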
Description: SANGER: Inhibition of human HSC-2 cell growth in a cell viability assay.

[9] = system: HSC-3; format: functional, cell-based
Description: SANGER: Inhibition of human HSC-3 cell growth in a cell viability assay.

[10] = system: HT-29; format: functional, cell-based;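 further: growth inhibition of human HT-29 cells, read out by a cell viability assay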
Description: SANGER: Inhibition of human HT-29 cell growth in a cell viability assay.

[11] = system: IGR-1; format: functional, cell-based;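 further: growth inhibition of human IGR-1 cells, read out with a cell viability assay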
Description: SANGER: Inhibition of human IGR-1 cell growth in a cell viability assay.

[12] = system: JEG-3; format: functional, cell-based;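 further: growth inhibition of human JEG-3 cells, read out with a cell viability assay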
Description: SANGER: Inhibition of human JEG-3 cell growth in a cell viability assay.

[13] = system: KYSE-150 cell line; format: functional, cell-based;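 further: growth inhibition of human KYSE-150 cells, read out with a cell viability assay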
Description: SANGER: Inhibition of human KYSE-150 cell growth in a cell viability assay.

[14] = system: MDA-MB-453; format: functional, cell-based
Description: SANGER: Inhibition of human MDA-MB-453 cell growth in a cell viability assay.

[15] = system: MeWo; format: functional, cell-based;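 further: growth inhibition of MeWo cells, determined by a cell viability readout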
Description: SANGER: Inhibition of human Mewo cell growth in a cell viability assay.

[16] = system: NCI-H1651; format: functional, cell-based;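 further: Read-out is a cell viability assay, with IC50 expressing inhibition of NCI-H1651 cell growth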
Description: SANGER: Inhibition of human NCI-H1651 cell growth in a cell viability assay.

[17] = system: NCI-H1693; format: functional, cell-based;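 further: growth inhibition of the human cell line, read out with a cell viability assay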
Description: SANGER: Inhibition of human NCI-H1693 cell growth in a cell viability assay.

[18] = system: NCI-H1993; format: functional, cell-based;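 further: growth inhibition of the cancer cell line, assessed with a cell viability assay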
Description: SANGER: Inhibition of human NCI-H1993 cell growth in a cell viability assay.

[19] = system: NCI-H2087; format: functional, cell-based;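 further: growth inhibition determined with a cell viability readout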
Description: SANGER: Inhibition of human NCI-H2087 cell growth in a cell viability assay.

[20] = system: NCI-H460; format: functional, cell-based;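 further: cell viability assay scoring growth inhibition of human NCI-H460 cells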
Description: SANGER: Inhibition of human NCI-H460 cell growth in a cell viability assay.

[21] = system: NCI-H520; format: functional, cell-based;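 further: growth inhibition of NCI-H520 cells, measured by a cell viability assay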
Description: SANGER: Inhibition of human NCI-H520 cell growth in a cell viability assay.

[22] = system: NCI-H522; format: functional, cell-based;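 further: cell viability assay measuring growth inhibition of human NCI-H522 cells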
Description: SANGER: Inhibition of human NCI-H522 cell growth in a cell viability assay.

[23] = system: NCI-H661; format: functional, cell-based;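 further: cell viability assay read-out, IC50 being the concentration that inhibits growth of the cells by half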
Description: SANGER: Inhibition of human NCI-H661 cell growth in a cell viability assay.

[24] = system: NY; format: functional, cell-based
Description: SANGER: Inhibition of human NY cell growth in a cell viability assay.

[25] = system: RCM-1; format: functional, cell-based;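 further: growth inhibition of the RCM-1 line, determined with a cell viability readout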
Description: SANGER: Inhibition of human RCM-1 cell growth in a cell viability assay.

[26] = system: SK-MEL3; format: functional, cell-based, SK-MEL-3;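 further: growth inhibition of human SK-MEL-3 cells, read out with a cell viability assay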
Description: SANGER: Inhibition of human SK-MEL-3 cell growth in a cell viability assay.

[27] = system: SK-N-AS; format: functional, cell-based;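 further: growth inhibition of human SK-N-AS cells, measured with a cell viability assay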
Description: SANGER: Inhibition of human SK-N-AS cell growth in a cell viability assay.

[28] = system: SW1417; format: functional, cell-based;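 further: growth inhibition of human SW1417 cells, read out with a cell viability assay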
Description: SANGER: Inhibition of human SW1417 cell growth in a cell viability assay.

[29] = system: SW1710; format: functional, cell-based;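 further: growth inhibition of SW1710 cells, determined with a cell viability assay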
Description: SANGER: Inhibition of human SW1710 cell growth in a cell viability assay.

[30] = system: SW1990; format: functional, cell-based;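 further: cell growth inhibition determined with a viability assay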
Description: SANGER: Inhibition of human SW1990 cell growth in a cell viability assay.

[31] = system: SW-620; format: functional, cell-based;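 further: growth inhibition of human SW-620 cells, measured by a cell viability assay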
Description: SANGER: Inhibition of human SW620 cell growth in a cell viability assay.

[32] = system: T98G; format: functional, cell-based;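 further: growth inhibition of T98G cells, read out by a cell viability assay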
Description: SANGER: Inhibition of human T98G cell growth in a cell viability assay.

[33] = system: 647-V; format: functional, cell-based;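 further: growth inhibition of 647-V cells, read out with a cell viability assay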
Description: SANGER: Inhibition of human 647-V cell growth in a cell viability assay.

[34] = system: 8505C; format: functional, cell-based
Description: SANGER: Inhibition of human 8505C cell growth in a cell viability assay.

[35] = system: A-427; format: functional, cell-based;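 further: growth inhibition of human A-427 cells, read out by a cell viability assay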
Description: SANGER: Inhibition of human A427 cell growth in a cell viability assay.

[36] = system: AGS; format: functional, cell-based;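 further: growth inhibition of AGS cells, determined with a cell viability assay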
Description: SANGER: Inhibition of human AGS cell growth in a cell viability assay.

[37] = system: AN3-CA; format: functional, cell-based;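 further: growth inhibition of human AN3-CA cells measured by a cell viability assay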
Description: SANGER: Inhibition of human AN3-CA cell growth in a cell viability assay.

[38] = system: U-118-MG; format: functional, cell-based
Description: SANGER: Inhibition of human U-118-MG cell growth in a cell viability assay.

[39] = system: WM-115; format: functional, cell-based
Description: SANGER: Inhibition of human WM-115 cell growth in a cell viability assay.

[40] = system: COLO-678; format: functional, cell-based
Description: SANGER: Inhibition of human COLO-678 cell growth in a cell viability assay.

[41] = system: COLO-679; format: functional, cell-based
Description: SANGER: Inhibition of human COLO-679 cell growth in a cell viability assay.

[42] = system: COLO-680N; format: functional, cell-based;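 further: cell viability assay used to measure inhibition of COLO-680N cell growth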
Description: SANGER: Inhibition of human COLO-680N cell growth in a cell viability assay.

Measured: IC50

NC1(c2ccc(-c3nc4ccn5c(=O)[nH]nc5c4cc3-c3ccccc3)cc2)CCC1 [MK-2206]
1.3 µM: [5]
3.23 µM: [3]
3.62 µM: [37]
2.72 µM: [36]
2.75 µM: [6]
0.986 µM: [21]
3.47 µM: [29]
> 4 µM: all other assays above

CN(C)CCOc1ccc(-c2nc(-c3ccncc3)c(-c3ccc4c(c3)CC/C4=N\O)[nH]2)cc1 [SB590885]
0.85 µM: [39]
0.818 µM: [26]
0.386 µM: [41]
> 5 µM: all other assays above
